Laboratory results: publication PMC3950514 (mBio, 2014)

What was measured:
[1] = molecular target: CnCam1 with human calcineurin (Cryptococcus neoformans, UniProt J9VTH9); test: malachite green phosphate release from RII phosphopeptide by human calcineurin; assay type: biochemical
[2] = molecular target: C. neoformans calmodulin (Cam1) (C. neoformans); test: pull-down

Sequence of green fluorescent protein (GFP)-tagged C. neoformans calcineurin (Cna1-GFP) (O42773 whole entry): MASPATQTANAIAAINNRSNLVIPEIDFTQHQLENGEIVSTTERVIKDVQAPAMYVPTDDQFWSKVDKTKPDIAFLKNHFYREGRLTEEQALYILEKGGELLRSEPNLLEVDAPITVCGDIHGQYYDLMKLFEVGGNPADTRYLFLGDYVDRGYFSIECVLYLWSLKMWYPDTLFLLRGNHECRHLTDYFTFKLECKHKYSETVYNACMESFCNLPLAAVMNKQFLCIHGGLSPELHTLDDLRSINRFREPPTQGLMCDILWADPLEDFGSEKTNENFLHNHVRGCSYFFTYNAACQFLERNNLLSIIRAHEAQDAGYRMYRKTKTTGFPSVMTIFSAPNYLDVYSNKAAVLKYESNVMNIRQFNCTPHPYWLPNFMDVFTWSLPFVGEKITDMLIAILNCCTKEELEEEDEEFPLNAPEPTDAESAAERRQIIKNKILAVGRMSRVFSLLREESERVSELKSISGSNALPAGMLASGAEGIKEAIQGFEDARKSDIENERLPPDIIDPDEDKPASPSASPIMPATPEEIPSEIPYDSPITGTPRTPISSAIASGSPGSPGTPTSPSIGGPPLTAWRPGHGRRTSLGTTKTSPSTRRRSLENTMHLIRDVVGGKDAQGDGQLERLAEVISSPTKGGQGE

| IC50 [1] [µM] | Molecule | percent reduction of the bound amount with toremifene (20 µg/ml) against DMSO [2] [%] |
| --- | --- | --- |
| 61.6 | CN(C)CCOc1ccc(/C(=C(/CCCl)c2ccccc2)c2ccccc2)cc1 [TOR, toremifene] |  |
|  | green fluorescent protein (GFP)-tagged C. neoformans calcineurin (Cna1-GFP) (from UniProt O42773 1-639) (enzyme) | 45 |
